Holding throughout (type): cell-based
Assay [1] has as its target T1, BRD4 (Homo sapiens, UniProt O60885).
T1 construct: HiBiT-BRD4 HEK293 CRISPR CPM (Promega CS302312); host or cells: HEK293, CRISPR-edited (HiBiT at the BRD4 locus)
The experiment in a line: BRD4 degradation, HiBiT-BRD4 HEK293 CRISPR CPM cells, NanoGlo Lytic Endpoint assay (Assay Protocol 1). The conditions noted are these: for Dmax: HEK293, Table 5; for DC50: Table 5. The method, then:
HiBiT-BRD9 KI HEK293 (LgBiT) Cells (Promega CS3023412) were seeded at 8000 cells per well (38 μL) in sterile white bottom 384 well plates (Invitrogen 164610 or Greiner 781080) and incubated overnight at 37° C. with 5% CO2. The next day, compounds were prepared at 1000× final concentration in DMSO and diluted 1:100 in media (DMEM PAN Biotech P04-03550+10% FBS ATCC 302025). 4 μL compound was added to each well of the cell plate and incubated for 6 h at 37° C. with 5% CO2 BRD9 expression was quantified using the NanoGlo Lytic Endpoint assay (Promega N3050). The lytic buffer was equilibrated to room temperature for 10-15 min before lytic reagent was prepared by adding substrate (1:50) and LgBit protein (1:100) in lytic buffer. 40 μL lytic reagent mix was added to each well of the cel plate and plates were centrifuged briefly at ˜50g. Plates were incubated with shaking (350 RPM) for 12-24 min before reading using the LUM plus module of a BMG Pherastar FSX. Data was analysed using Dotmatics software and % BRD9 remaining was calculated by normalisation to average data from high and low control wells (DMSO treated cels and no cells respectively).
[…] was determined in line with the procedure as outlined above for BRD9, HiBiT-BRD4 HEK293 CRISPR CPM (Promega CS302312) were seeded at 8000 CPW (36 uL) in sterile white bottom 384 well plates (Invitrogen 164610 or Greiner 781080) and incubated overnight at 37° C. with 5% CO2.
A general note: With HiBiT, luminescence reflects the tagged protein that the partner subunit can reach.

Assay [2] has as its target T2, BRD9 (Homo sapiens, UniProt Q9H8M2).
T2 sequence (Q9H8M2 1-597): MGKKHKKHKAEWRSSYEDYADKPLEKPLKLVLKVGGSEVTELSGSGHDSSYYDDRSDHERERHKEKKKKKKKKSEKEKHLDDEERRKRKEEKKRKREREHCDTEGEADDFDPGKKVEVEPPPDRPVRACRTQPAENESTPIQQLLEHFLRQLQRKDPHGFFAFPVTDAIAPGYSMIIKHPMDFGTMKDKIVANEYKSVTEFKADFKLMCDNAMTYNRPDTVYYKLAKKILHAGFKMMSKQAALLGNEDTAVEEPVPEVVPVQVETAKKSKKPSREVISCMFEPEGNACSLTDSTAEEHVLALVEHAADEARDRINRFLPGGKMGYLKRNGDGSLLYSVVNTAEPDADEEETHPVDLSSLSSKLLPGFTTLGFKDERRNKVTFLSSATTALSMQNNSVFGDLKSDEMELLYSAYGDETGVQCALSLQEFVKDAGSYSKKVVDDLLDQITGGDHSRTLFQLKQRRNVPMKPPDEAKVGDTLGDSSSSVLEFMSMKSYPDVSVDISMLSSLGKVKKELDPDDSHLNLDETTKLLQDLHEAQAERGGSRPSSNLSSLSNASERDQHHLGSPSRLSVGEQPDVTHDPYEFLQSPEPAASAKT
The experiment in a line: BRD9 degradation, HiBiT-BRD9 KI HEK293 (LgBiT) cells, NanoGlo Lytic Endpoint assay (Assay Protocol 1). As to conditions: for Dmax / Dmax at 1 µM: HEK293. In a few lines:
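HiBiT-tagged BRD9 knock-in HEK293 (LgBiT) cells exposed to compounds for 6 h at 37 °C, 5% CO2. Residual BRD9 measured by HiBiT lytic luminescence. % BRD9 remaining normalised to DMSO-treated cells (high) and no-cell wells (low).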

Assay [3] addresses T1, BRD4. The assay is described as follows: BRD4 degradation, HiBiT-BRD4 HEK293 CRISPR CPM cells, NanoGlo Lytic Endpoint assay (Assay Protocol 1). The conditions noted are these: HEK293; Table 3; assay 1; 1 μM compound at 5 h of treatment.
Assay [4] concerns the target T2, BRD9. The experiment in a line: BRD9 degradation, HiBiT-BRD9 KI HEK293 (LgBiT) cells, NanoGlo Lytic Endpoint assay (Assay Protocol 1). As to conditions: Table 3; assay 1; 5 h of treatment.
Setting [5] is: Table 4, BRD9 degradation, determined according to Assay Protocol 1, read-out: Dmax^1.
[6] abbreviates: Table 5, assay protocol 1, read-out: BRD9 Dmax (%).
Where [7] appears, read: Table 4, BRD9 degradation, determined according to Assay Protocol 1, read-out: DC50^1.
[8] abbreviates: Table 5, assay protocol 1, read-out: BRD9 DC50.
The mark [9] stands for this setting: Table 2, BRD9 degradation, Assay Protocol 1, 1 μM compound at 6 h of treatment, read-out: Assay 1 Dmax.
The mark [10] stands for this setting: Table 3, assay 1, 1 μM compound at 5 h of treatment, read-out: BRD9 Dmax (%).
Where [11] appears, read: Table 2, BRD9 degradation, Assay Protocol 1, 6 h of treatment, read-out: Assay 1 DC50.

Where two headings read alike, the source gives them in different places.

As for `COc1cc(-c2cn(C)c(=O)c(C)c2C)cc(OC)c1CN1CC2CC1CN2C(=O)/C(C#N)=C/c1nccs1` (mixture of isomers) [BRD9i, (E/Z)-2-(5-(2,6-dimethoxy-4-(1,4,5-trimethyl-6-oxo-1,6-dihydropyridin-3-yl)benzyl)-2,5-diazabicyclo[2.2.1]heptane-2-carbonyl)-3-(thiazol-2-yl)acrylonitrile], the Dmax (commonly the greatest extent of degradation seen) in assay [1] was in the range of 40 to 70%; in assay [2] (setting [5]), 50 to 70%; in assay [2] (setting [6]), 40 to 70%. In addition, the DC50 – broadly, the midpoint of the concentration-degradation curve – was greater than 1000 nM in assay [1], 25 to 200 nM in assay [2] (setting [7]) and 25 to 1000 nM in assay [2] (setting [8]).

For `COc1cc(-c2cn(C)c(=O)c3cnccc23)cc(OC)c1CN1CCN(Cc2cccc3c2CCN(C(=O)/C(C#N)=C\c2ncc(C)s2)C3C)CC1` (mixture of isomers) [Compound A10, (E/Z)-2-(5-((4-(2,6-dimethoxy-4-(2-methyl-1-oxo-1,2-dihydro-2,7-naphthyridin-4-yl)benzyl)piperazin-1-yl)methyl)-1-methyl-1,2,3,4-tetrahydroisoquinoline-2-carbonyl)-3-(5-methylthiazol-2-yl)acrylonitrile], the results for the Dmax in assay [3] and in assay [2] (setting [10]) were less than 25% and 40 to 70%, respectively. The DC50 in assay [4] and in assay [2] (setting [11]) was less than 1.25 nM throughout. Besides, in assay [2] (setting [9]), the maximal degradation (Dmax) at 1 µM lay in the range of 40 to 70%.

For the compound `COc1cc(-c2cn(C)c(=O)c(C)c2C)cc(OC)c1CN1CCCN(Cc2cccc3c2CCN(C(=O)/C(C#N)=C/C(C)(C)C)C3C)CC1` (mixture of isomers) [Compound A72, (E/Z)-2-(5-((4-(2,6-dimethoxy-4-(1,4,5-trimethyl-6-oxo-1,6-dihydropyridin-3-yl)benzyl)-1,4-diazepan-1-yl)methyl)-1-methyl-1,2,3,4-tetrahydroisoquinoline-2-carbonyl)-4,4-dimethylpent-2-enenitrile], the Dmax in assay [3] is less than 25%. In addition, the DC50 in assay [4] and in assay [2] (setting [11]) was 10 to 25 nM throughout. The Dmax at 1 µM in assay [2] (setting [9]) and in assay [2] (setting [10]) was 70 to 75% throughout.

On to `COc1cc(-c2cn(C)c(=O)c(C)c2C)cc(OC)c1CN1CC2CC(C1)N2Cc1cccc2c1CCN(C(=O)/C(C#N)=C/C(C)(C)C)C2C` (mixture of isomers) [Compound A71, (E/Z)-2-(5-((3-(2,6-dimethoxy-4-(1,4,5-trimethyl-6-oxo-1,6-dihydropyridin-3-yl)benzyl)-3,6-diazabicyclo[3.1.1]heptan-6-yl)methyl)-1-methyl-1,2,3,4-tetrahydroisoquinoline-2-carbonyl)-4,4-dimethylpent-2-enenitrile], for which the Dmax in assay [3] fell in the range of 25 to 40%. Besides, the DC50 in assay [4] and in assay [2] (setting [11]) was 1.25 to 10 nM throughout. Also, the Dmax at 1 µM in assay [2] (setting [9]) and in assay [2] (setting [10]) was 70 to 75% in each case.

In assay [3], `COc1cc(-c2cn(C)c(=O)c3cnccc23)cc(OC)c1CN(C)Cc1cccc2c1CCN(C(=O)/C(C#N)=C/c1cccc(Br)n1)C2C` (mixture of isomers) [Compound A50] displayed a Dmax of less than 25%. Besides, the DC50 in assay [4] and in assay [2] (setting [11]) was less than 1.25 nM throughout. Also, the Dmax at 1 µM in assay [2] (setting [9]) and in assay [2] (setting [10]) was greater than 75% in each case.

As for `COc1cc(-c2cn(C)c(=O)c(C)c2C)cc(OC)c1CN1CC2CC1CN2C(=O)/C(C#N)=C/C(C)(C)C` (mixture of isomers) [BRD9b], the Dmax was greater than 75% in assay [1], greater than 70% in assay [2] (setting [5]) and 70 to 75% in assay [2] (setting [6]). The DC50 was 25 to 1000 nM in assay [1], less than 25 nM in assay [2] (setting [7]) and 10 to 25 nM in assay [2] (setting [8]).

Take `COc1cc(-c2cn(C)c(=O)c(C)c2C)cc(OC)c1CN1CCN(C(=O)/C(C#N)=C/c2cccc(Br)n2)CC1` [BRD9h, (E/Z)-3-(6-bromopyridin-2-yl)-2-(4-(2,6-dimethoxy-4-(1,4,5-trimethyl-6-oxo-1,6-dihydropyridin-3-yl)benzyl)piperazine-1-carbonyl)acrylonitrile]: the Dmax in assay [1] is 40 to 70%; in assay [2] (setting [5]), greater than 70%; in assay [2] (setting [6]) it was greater than 75%. In addition, the DC50 is 25 to 1000 nM in assay [1], less than 25 nM in assay [2] (setting [7]) and less than 1.25 nM in assay [2] (setting [8]).

Consider `COc1cc(-c2cn(C)c(=O)c(C)c2C)cc(OC)c1CN(C)C(=O)/C(C#N)=C/C(C)(C)C` [BRD9ac, (E/Z)-2-cyano-N-(2,6-dimethoxy-4-(1,4,5-trimethyl-6-oxo-1,6-dihydropyridin-3-yl)benzyl)-N,4,4-trimethylpent-2-enamide], for which the values for the Dmax in assay [1] and in assay [2] (setting [5]) were 25 to 40% and 30 to 50%, respectively. Further, the DC50 in assay [1] was greater than 1000 nM; in assay [2] (setting [7]), 25 to 200 nM.

In the case of `COc1cc(-c2cn(C)c(=O)c(C)c2C)cc(OC)c1CN1CCN(C(=O)/C(C#N)=C/C(C)(C)C)CC1` [BRD9a, (E/Z)-2-(4-(2,6-dimethoxy-4-(1,4,5-trimethyl-6-oxo-1,6-dihydropyridin-3-yl)benzyl)piperazine-1-carbonyl)-4,4-dimethylpent-2-enenitrile], the Dmax in assay [1] is greater than 75%; in assay [2] (setting [5]), 50 to 70%; in assay [2] (setting [6]), 40 to 70%. Besides, the values for the DC50 in assay [1], in assay [2] (setting [7]) and in assay [2] (setting [8]) were 25 to 1000 nM, greater than 200 nM and 25 to 1000 nM, respectively.

With `COc1cc(-c2cn(C)c(=O)c(C)c2C)cc(OC)c1CN1CCCN(C(=O)/C(C#N)=C/C(C)(C)C)CC1` [BRD9c, (E/Z)-2-(4-(2,6-dimethoxy-4-(1,4,5-trimethyl-6-oxo-1,6-dihydropyridin-3-yl)benzyl)-1,4-diazepane-1-carbonyl)-4,4-dimethylpent-2-enenitrile], the Dmax is greater than 75% in assay [1] and greater than 70% in assay [2] (setting [5]). Further, the DC50 in assay [1] was 25 to 1000 nM; in assay [2] (setting [7]), less than 25 nM.

As for `COc1cc(-c2cn(C)c(=O)c(C)c2C)cc(OC)c1CN(C)C1CCN(C(=O)/C(C#N)=C/C(C)(C)C)CC1` [BRD9d, (E/Z)-2-(4-((2,6-dimethoxy-4-(1,4,5-trimethyl-6-oxo-1,6-dihydropyridin-3-yl)benzyl)(methyl)amino)piperidine-1-carbonyl)-4,4-dimethylpent-2-enenitrile], the values for the Dmax in assay [1], in assay [2] (setting [5]) and in assay [2] (setting [6]) were less than 25%, greater than 70% and 70 to 75%, respectively. Moreover, the 50% degradation concentration (DC50) in assay [1] is greater than 1000 nM; in assay [2] (setting [7]), 25 to 200 nM; in assay [2] (setting [8]), 10 to 25 nM.

With `COc1cc(-c2cn(C)c(=O)c(C)c2C)cc(OC)c1CN1C2CC1CN(C(=O)/C(C#N)=C/c1cccc(Br)n1)C2` (mixture of isomers) [BRD9o, (E/Z)-3-(6-bromopyridin-2-yl)-2-(6-(2,6-dimethoxy-4-(1,4,5-trimethyl-6-oxo-1,6-dihydropyridin-3-yl)benzyl)-3,6-diazabicyclo[3.1.1]heptane-3-carbonyl)acrylonitrile], the Dmax in assay [1] was 25 to 40%; in assay [2] (setting [5]), greater than 70%; in assay [2] (setting [6]), greater than 75%. The DC50 in assay [1] was greater than 1000 nM; in assay [2] (setting [8]), 10 to 25 nM.

`COc1cc(-c2cn(C)c(=O)c(C)c2C)cc(OC)c1CN1CCN(C(=O)/C(C#N)=C/C(C)(C)C)C2(CC2)C1` [BRD9e, (E/Z)-2-(7-(2,6-dimethoxy-4-(1,4,5-trimethyl-6-oxo-1,6-dihydropyridin-3-yl)benzyl)-4,7-diazaspiro[2,5]octane-4-carbonyl)-4,4-dimethylpent-2-enenitrile]: the Dmax in assay [1] is greater than 75%. In addition, the DC50 in assay [1] was 25 to 1000 nM; in assay [2] (setting [7]) it was greater than 200 nM.

For the origin of these results see patent US20260092061A1, “COMPOUNDS FOR TARGETED PROTEIN DEGRADATION” (Amphista Therapeutics Limited, priority 2022, published 2026).
